{"source": "patent US20240000753A1", "about": "“METHODS AND COMPOSITIONS TO INCREASE LIFESPAN AND HEALTHSPAN BY MIMICKING THE EFFECTS OF TIME-RESTRICTED FEEDING” (The Trustees of Columbia University in the City of New York, priority 2020, published 2024)", "tested_on": "Drosophila", "assay": "Lifespan analysis of flies fed RU486", "type": "in vivo", "conditions": "flies lacking UAS-RNAi transgenes; RU486 fed from day 5 post-eclosion until death (FIG. 5K)", "experimental": "All drugs were supplemented into cooled (65° C.) liquid adult medium (containing 3% yeast extract) following preparation to the following final concentration(s): RU486 (Cayman Chemical) was dissolved in ethanol was supplemented into medium after day 5 of eclosion at a final concentration of 100 μg/mL (with the exception of daGS>UAS-atg1 and controls, 0.5 μg/mL) vehicle controls were supplemented with same volume of ethanol alone. Timed RU486 feeding of daGS>UAS-atg1 consisted of flies being fed 0.5 μg/mL in standard adult media or fasting media only during the fasting phase, then flipped to vehicle control food the following morning only from days 10-40 of adulthood. Vehicle only controls were flipped at the same time for consistency. For gut microbe clearance, the medium contained 500 μg/mL ampicillin, 50 μg/mL tetracycline, and 200 μg/mL rifamycin in 50% ethanol. Same volume of 50% ethanol alone was used as the vehicle control. Drosophila were reared from embryos in low-density bottles with standard yeast cornmeal-agar media listed above (Archon Scientific) Newly eclosed flies (˜24 hours) were collected onto adult medium w/3% yeast extract and allowed to mate for 48 hours. […] Death was scored at time of flipping, and lifespan compared by log-rank analysis.", "data": [{"molecule": "CC#C[C@]1(O)CC[C@H]2[C@@H]3CCC4=CC(=O)CCC4=C3[C@@H](c3ccc(N(C)C)cc3)C[C@@]21C", "note": "[RU486]", "values": [{"measurement": "effect on iTRF-mediated lifespan extension", "value": "no effect"}]}]}
